The numbers were not newly measured in US20170247690A1, “ONCOVIRAL TREATMENT WITH NUCLEASE AND CHEMOTHERAPEUTIC” (priority 2016, published 2017), which cites them from elsewhere.

SMILES strings stand for the structures.

One data set deals with proteasome T-L activity. The following applies: animal model studies.
The next data set deals with 20S proteasomes (Homo sapiens, UniProt Q99436). The following applies: purified 20S proteasomes.

Regarding `CC(C)C[C@H](NC(=O)[C@H](Cc1ccccc1)NC(=O)c1cnccn1)B(O)O` [bortezomib], the “T-L proteasome activity in vivo” value with proteasome T-L activity is reported as “enhances T-L proteasome activity”. Take `C[C@@]12OC(=O)[C@]1([C@@H](O)[C@@H]1C=CCCC1)NC(=O)[C@@H]2CCCl` [salinosporamide A, Salinosporamide A]: the “EC50 for trypsin-like (T-L) activity, comparison” value on 20S proteasomes is reported as “lower EC50 for trypsin-like (T-L) activity than does bortezomib”. In addition, the “T-L proteasome activity in vivo” value in the data set on proteasome T-L activity is “marked inhibition of T-L activity”.
